Reference: article PMC7822874, “Chemoprotective antimalarials identified through quantitative high-throughput screening of Plasmodium blood and liver stage parasites” (Scientific Reports, 2021)
Several values for one entry are separate records, joined by “and”; a condition that tells them apart may be missing. Equal values may be shown once. Read-outs that look alike come from different tables or passages of the source.

Legend:
[1] = system: T1, Plasmodium falciparum Dd2-attB (parental line), asexual blood stages; assay: microbe, parasite or virus in culture; parameters: replicate k of 3 (each line is one of three independent assays; the three lines of one compound and parasite line follow each other); settings: n = 1; for Individual replicates / Log AC50 (M): 72 h; for AC50: Plasmodium falciparum, DD2, 72 h, read-out: Individual replicates / Log AC50 (converted)
T1 construct: Dd2-attB, the isogenic parental line
Method in brief: (§1)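 Only some compounds were profiled here. Each was assayed three independent times against the Dd2-attB parent and its yeast-DHODH-overexpressing derivative.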

[2] = system: T2, Plasmodium falciparum Dd2-attB-ScDHODH (transgenic line expressing yeast DHODH), asexual blood stages; assay: organism not typed; parameters: replicate k of 3 (each line is one of three independent assays; the three lines of one compound and parasite line follow each other); settings: 72 h, n = 1; for AC50: read-out: Individual replicates / Log AC50 (converted)
T2 construct: Dd2-attB-ScDHODH, the transgenic line that expresses yeast DHODH
Method in brief: as §1

[3] = system: T1, Plasmodium falciparum Dd2-attB (parental line), asexual blood stages; assay: microbe, parasite or virus in culture; parameters: species or system P. falciparum Dd2-attB in human erythrocytes; SYBR Green-I proliferation assay, Dd2-attB parental line, asexual blood stages; settings: 72 h; for AC50: Plasmodium falciparum, DD2, Erythrocyte, read-out: Calculated / Average Log AC50 (M), mean of replicates, 72 h (converted)

SMILES	Individual replicates / Log AC50 (M) [1]	AC50 [1] [µM]	Individual replicates / Log AC50 (M) [2]	AC50 [2] [µM]	AC50 [3] [M]	Calculated / Average Log AC50 (M) ([3]; mean of replicates, inhibitor, Calculated / Average Log AC50 (M))
Oc1ncnc2sc(C(OCCN3CCCCC3)c3ccccc3Cl)cc12 (centres unmarked) [NCGC00481361-01]	-5.0986 Log AC50 (M)	8.94	-5.0486 Log AC50 (M)	15.9	1e-05	
COC(=O)c1ccnc2cc(C(OCCN3CCC(F)(F)CC3)c3ccccc3Cl)[nH]c12 (centres unmarked) [NCGC00408945-01]		10		15.9	1.42e-05	
O=C(NCCCCN1CCOCC1)c1cccc(-c2cc(O)c3ncccc3c2)c1 [NCGC00249385-01]	-5.1986 Log AC50 (M) and -4.8986 Log AC50 (M)	6.33	-5.2486 Log AC50 (M) and -5.1486 Log AC50 (M) and -4.8486 Log AC50 (M)		7.97e-06	
Oc1ccc(CNc2cc(Br)ccn2)c2cccnc12 [NCGC00241030-01]	-5.2486 Log AC50 (M) and -5.0486 Log AC50 (M)	5.64	-5.2486 Log AC50 (M) and -5.1986 Log AC50 (M) and -4.8986 Log AC50 (M)		6.58e-06	
CC1CN(Cc2ccccc2)CCN1c1cnc2c(O)ccc(C(=O)O)c2c1 (centres unmarked) [NCGC00249384-01]		14.2		17.8	1.59e-05	
O=C(NC1=CC(=O)c2ccccc2C1=O)c1ccccc1 [MLS002693850-02]	-5.5986 Log AC50 (M) (2×) and -5.1486 Log AC50 (M)		-5.5486 Log AC50 (M) and -5.0986 Log AC50 (M)		3.56e-06	
O=C(c1cccc(-c2cc(O)c3ncccc3c2)c1)N1CCN(CCCN2CCOCC2)CC1 [NCGC00247764-01]		17.8		17.8	2e-05	
O=C(O)c1ccncc1Nc1nn(CCN2CCC(F)(F)CC2)c2ccc(F)cc12 [NCGC00384162-01]		15.9		17.8	1.93e-05	
Cc1ccccc1Nc1c(-c2ccccc2O)nc2sccn12 [NCGC00105919-03]	-4.8986 Log AC50 (M) and -5.0986 Log AC50 (M)	12.6	-4.8486 Log AC50 (M) and -5.0486 Log AC50 (M)	8.94	1.08e-05	
Oc1ccc(/C=C/c2c(F)cccc2F)c2cccnc12 [NCGC00184904-01]	-5.0986 Log AC50 (M) and -5.0486 Log AC50 (M)	14.2	-4.7486 Log AC50 (M) and -4.7986 Log AC50 (M)		1e-05	
O=[S+]([O-])(Nc1ccc(O)c2ncccc12)c1ccccc1F [NCGC00184887-02]	-4.8986 Log AC50 (M) and -5.0486 Log AC50 (M) (2×)		-4.9486 Log AC50 (M) and -4.8486 Log AC50 (M)		1e-05	
O=C(O)c1ccnc(-n2ncc(C(OCCN3CCCCC3)c3ccccc3Cl)c2-c2cccc(-c3ccccc3)c2)c1 (centres unmarked) [NCGC00481640-01]	-5.0486 Log AC50 (M) and -4.8986 Log AC50 (M) (2×)		-4.7986 Log AC50 (M) and -4.8486 Log AC50 (M)			-4.9486
CN(C)CCCNC(=O)c1cccc(-c2cc(O)c3ncccc3c2)c1 [NCGC00244527-01]	-5.0486 Log AC50 (M) and -4.8486 Log AC50 (M)	14.2	-4.7986 Log AC50 (M)	8.94	1.22e-05	
CCCCN1CCCc2cc(CN(CCCN3CCOCC3)C(=O)Nc3ccc(OCC)cc3)ccc21 [NCGC00140593-02]	-4.9986 Log AC50 (M) and -4.7986 Log AC50 (M)	15.9	-4.8486 Log AC50 (M) and -4.7986 Log AC50 (M)	17.8	1.36e-05	
Cc1ccccc1CN1CCN(c2cnc3c(O)ccc(C(=O)O)c3c2)CC1 [NCGC00249382-01]		14.2		15.9	1.65e-05	
CC(C)(C)OC(=O)NC1CCN(c2cc(-c3ccc(Cl)cc3)[nH]n2)C1 (centres unmarked) [NCGC00490648-01]		11.3		10	1.59e-05	
CC(C)OC(=O)c1ccnc2cc(C(OCCN3CCCCC3)c3cccc(NC(=O)/C=C/CN(C)C)c3)sc12 (centres unmarked) [NCGC00493268-01]	-5.5986 Log AC50 (M) and -5.5486 Log AC50 (M)	5.03	-5.4486 Log AC50 (M) and -5.1486 Log AC50 (M)		3.3e-06	
CCCOC(c1cc2nccc(C(=O)O)c2[nH]1)c1ccccc1Cl (centres unmarked) [NCGC00381656-01]	-5.0486 Log AC50 (M) and -4.7986 Log AC50 (M)	7.97	-4.9486 Log AC50 (M)	15.9	1.04e-05	
CN(C)CCCOc1ccc(-c2cc(O)c3ncccc3c2)cn1 [NCGC00247741-01]	-4.7986 Log AC50 (M) and -5.1486 Log AC50 (M) and -5.0986 Log AC50 (M)		-4.7486 Log AC50 (M) and -5.0486 Log AC50 (M)		9.65e-06	
O=C(Cc1ccc(O)cc1)N1CCC2(C1)CN(c1ccccc1)C2 [NCGC00510421-01]	-4.9486 Log AC50 (M)	14.2	-4.7986 Log AC50 (M) and -4.7486 Log AC50 (M)	14.2	1.26e-05	
Cc1ccc(NC(=O)C(N[S+](=O)([O-])c2ccc3c(c2)CCC(=O)N3)c2ccccc2)cc1C (centres unmarked) [NCGC00110290-01]		17.8		8.94	1.59e-05	
CCOC(=O)c1c2ccc(C(=O)N3CCOCC3)cc2n2ccccc12 [NCGC00390098-01]	-5.0486 Log AC50 (M)	14.2		7.1	1.26e-05	
CCOC(=O)c1ccc(O)c2ncc(NCC3CCCN(CCc4ccccc4)C3)cc12 (centres unmarked) [NCGC00241755-01]	-5.1486 Log AC50 (M) and -4.8986 Log AC50 (M)	6.33	-5.0986 Log AC50 (M)	6.33	8.28e-06	
COc1ccc(-n2ncc(C(=O)N3CCc4ccccc4C3)c2C2CCN(C(=O)OC(C)(C)C)CC2)cc1 [NCGC00127123-02]	-5.2486 Log AC50 (M) and -4.9986 Log AC50 (M)	8.94	-4.7986 Log AC50 (M) and -4.8486 Log AC50 (M)	14.2	7.97e-06	
CN(C)CCNC(=O)c1ccc(-c2cc(O)c3ncccc3c2)cc1 [NCGC00247749-01]	-4.9986 Log AC50 (M) and -5.0486 Log AC50 (M)	15.9		17.8	1.13e-05	
COC(=O)c1ccnc2cc(C(OCCN3CCCCC3)c3ccccc3Cl)sc12 (centres unmarked) [NCGC00481502-01]	-5.0486 Log AC50 (M) and -4.8486 Log AC50 (M)	15.9	-4.7486 Log AC50 (M)	17.8	1.26e-05	
O=C(O)c1c2ccc(C(=O)N3CCOCC3)cc2n2ccccc12 [NCGC00390822-01]	-5.7986 Log AC50 (M) and -5.7486 Log AC50 (M)	2.83	-5.5986 Log AC50 (M)	2.52	2e-06	
Cc1nn2c(c1-c1ccccc1Oc1ccccc1)N(Cc1ccccc1)CCC2 [NCGC00499717-01]	-4.9986 Log AC50 (M) and -4.7486 Log AC50 (M)	15.9	-4.7986 Log AC50 (M)	15.9	1.42e-05	
CCC(C)C1=N[S+](=O)([O-])c2cc(NC(=O)C3CC3)ccc2N1c1ccccc1 (centres unmarked) [NCGC00474156-01]	-5.9486 Log AC50 (M) and -5.5986 Log AC50 (M) (2×)		-5.1986 Log AC50 (M) and -5.1486 Log AC50 (M)	8.94	1.93e-06	
